For 2 molecules, IC50 results are on record in US20230111996A1, “COMPOUNDS AND CONJUGATES THEREOF” (priority 2020, published 2023).

Common to all, as to assay type: cell-based
Experiment [1] deals with A549. Put plainly: In-vitro cytotoxicity test of compounds ([…]-GLO), A549. The note with it: Homo sapiens; A549, 72 hours. On the procedure: (§1) Killing of human tumor cell lines was evaluated in vitro using the protocol recommended in the […]-GLO® kit (Promega, Madison, Wis.). Briefly, 3×10^3 cells in […] RPMI+10% FBS were added to the inner wells of white-walled 96-well plates (Corning® Costar®, Fisher Scientific, Waltham, Mass.). The following cell lines were tested: A549, HCT116 and SKBR3. The test compounds were diluted to a 5Ax stock (125 μM) in RPMI+10% FBS. Treatments were then serially diluted 1:10 in RPMI+10% FBS. […] of this series was added to the cells in triplicate, resulting in a 9-point dose curve of test compound ranging from […] at the highest concentration to 2.5×10^−7 mM at the lowest. DMSO (vehicle) and media-only controls also were included. Plates were incubated at 37° C., 5% CO2 for 72 hours. At the end of the incubation period, […] of the Substrate Solution (Promega, Madison Wis.) was added to each well. Luminescence was measured using an EnVision Multilabel plate reader (Perkin Elmer, Waltham, Mass.). Data were analyzed and graphed using GraphPad Prism software (GraphPad Software, Inc., La Jolla, Calif.).

Experiment [2] relates to SKBR3. Kind of experiment: In-vitro cytotoxicity test of compounds ([…]-GLO), SKBR3. The note with it: Homo sapiens, SK-BR-3; SKBR3, 72 hours. On the procedure:
as §1

Experiment [3] deals with HCT116. Put plainly: In-vitro cytotoxicity test of compounds ([…]-GLO), HCT116. The conditions noted are these: Homo sapiens, HCT-116; HCT116, 72 hours. Here is the method: as §1

For `CC[C@@]1(O)C(=O)OCc2c1cc1n(c2=O)Cc2c-1nc1cc(F)c(N)c3c1c2CCC3` [Compound 1, (S)-4-amino-9-ethyl-5-fluoro-9-hydroxy-1,2,3,9,12,15-hexahydro-10H,13H-benzo[de]pyrano[3′,4′:6,7]indolizino[1,2-b]quinoline-10,13-dione], the half-maximal inhibitory concentration (IC50) was determined as 0.248 nM in experiment [1], 0.0958 nM in experiment [2] and 0.164 nM in experiment [3].
For `CC[C@@]1(O)C(=O)OCc2c1cc1n(c2=O)Cc2c-1nc1cc(F)c(C)c3c1c2[C@@H](N)CC3` [Exatecan] the same measures were 2.45 nM, 0.181 nM and 0.996 nM.

One may read the IC50 as the concentration that inhibits the measured activity by half.
